Among the data in patent US20150004134A1, “TREATMENT OF CANCER WITH HETEROCYCLIC INHIBITORS OF GLUTAMINASE” (Calithera Biosciences, Inc., priority 2012, published 2015) are IC50 values, retold here.

The term pIC50 denotes −log10 of the IC50, conventionally taken in molar units.

SMILES strings stand for the structures. pIC50: −log10 of the molar value. Like-named read-outs stand apart in the source and are kept apart here.

This experiment concerns P493-6 (myc "on") cells. In words: Cell Proliferation Assay. The experiment is classed as cell-based. Particulars: P493-6, 72 h. The method, then: P493-6 (myc “on”) cells were maintained in growth media (RPMI-1640, 10% FBS, 2 mM glutamine, 100 units/ml Penicillin and 100 μg/ml streptomycin) at 37° C. with 5% CO2. For compound assay, P493-6 cells were plated in 96-well V-bottom plates on the day of compound addition in 50 μl of growth media at a cell density of 200,000 cells/ml (10,000 cells/well). Compounds were serially diluted in 100% DMSO at 200-times the final concentration. Compounds were diluted 100-fold into growth media and then 50 μl of this mixture was added to cell plates making the final concentration of DMSO 0.5%. Cells were incubated with compound for 72 hrs at 37° C. with 5% CO2 and analyzed for antiproliferative effects either by Cell Titer Glo (Promega) or FACS analysis using the Viacount (Millipore) kit on the Guava instrument.

Setting [1] is: read-out: Cell prolif P493 72 h IC50, P493-6 cells, 72 h.
Setting [2] is: read-out: Cell prolif P493 72 h IC50, P493 cells, 72 h.

Regarding `CCOC(=O)NCc1cccc(CC(=O)Nc2ccc(CCCCc3nnc(NC(=O)Cc4cccc(CNC(=O)OCC)c4)s3)nn2)c1` [Compound 572], under setting [1], the pIC50 was 8.40.
Take `CC(C)(C)C(=O)OCN(C(=O)Cc1ccccc1)c1nnc(CCSCCc2nnc(NC(=O)Cc3ccccc3)s2)s1` [Compound 15]: under setting [2], the pIC50 was 5.92.
As for `CCNC(=O)Nc1ccc(CCCCc2nnc(NC(=O)Cc3cccc(CNC(=O)OC(C)(C)C)c3)s2)nn1` [Compound 420], the pIC50 under setting [1] was 7.15.
Consider `O=C(Cc1ccccc1)Nc1ccc(CCCCc2nnc(NC(=O)NCc3ccccc3)s2)nn1` [Compound 352], for which the negative logarithm of the IC50 (pIC50) under setting [2] is 6.89.
The same measure, in the same setting: the result for `O=C(Cc1ccccc1)Nc1nnc(CCSCc2nnc(NC(=O)Cc3cccc(OCCN4CCOCC4)c3)s2)s1` [Compound 378] reads 7.05; that for `CC(C)[C@H](NC(=O)OC(C)(C)C)C(=O)Nc1nnc(CCCCc2nnc(NC(=O)[C@@H](NC(=O)OC(C)(C)C)C(C)C)s2)s1` [Compound 42], less than 4.30.
Still for that read-out and setting: with `CC(C)(C)OC(=O)Nc1cccc(CC(=O)Nc2nnc(CCSCCc3nnc(NC(=O)Cc4cccc(NC(=O)OC(C)(C)C)c4)s3)s2)c1` [Compound 98] the figure was 5.41; with `CC(C)(C)OC(=O)N1CCCC(CC(=O)Nc2nnc(CCSCCc3nnc(NC(=O)CC4CCCN(C(=O)OC(C)(C)C)C4)s3)s2)C1` (centres unmarked) [Compound 112], 6.05.
Same read-out and setting: with `COc1cccc(CC(=O)Nc2nnc(CCCCc3nnc(NC(=O)Cc4cccc(OC)c4OC)s3)s2)c1OC` [Compound 260] the figure was 7.08; with `COc1ccccc1CC(=O)Nc1nnc(CCSCCc2nnc(NC(=O)C(CO)c3ccccc3OC)s2)s1` (centres unmarked) [Compound 246], 5.80; with `CC(C)(C)OC(=O)N1CCCC(CC(=O)Nc2nnc(CCCCc3nnc(NC(=O)CC4CCCN(C(=O)OC(C)(C)C)C4)s3)s2)C1` (centres unmarked) [Compound 115], 5.96.
`O=C(Nc1nnc(CCSCCc2nnc(NC(=O)C3CCCC3)s2)s1)C1CCCC1` [Compound 40]: under setting [2], the negative-log IC50 (pIC50) is 6.25.
Turning to `COc1ccc(C(O)C(=O)Nc2nnc(CCCCc3nnc(NC(=O)C(O)c4ccc(OC)cc4)s3)s2)cc1` (centres unmarked) [Compound 320], under setting [2], the pIC50 was 6.72.
The same measure, in the same setting: with `O=C(Nc1nnc(CCCCc2nnc(NC(=O)C3CCCO3)s2)s1)C1CCCO1` (centres unmarked) [Compound 54] the figure was 5.80; with `O=C(Nc1nnc(CCSCCc2nnc(NC(=O)C3CC4CCC3C4)s2)s1)C1CC2CCC1C2` (centres unmarked) [Compound 38], 5.49.
As for `CNCc1cccc(CC(=O)Nc2nnc(CCCCc3nnc(NC(=O)Cc4ccccc4)s3)s2)c1` [Compound 393], under setting [1], the negative-log IC50 (pIC50) is 6.05.
Regarding `O=C(Nc1nnc(CCCc2nnc(NC(=O)C(O)Cc3ccccc3)s2)s1)C(O)Cc1ccccc1` (centres unmarked) [Compound 170], the pIC50 under setting [2] was 5.03.
On to `O=C(Cc1ccccc1)Nc1ccc(CCCCc2nnc(NC(=O)Cc3ccc(F)c(CN4CCNCC4)c3)s2)nn1` [Compound 494], for which the pIC50 under setting [1] was 6.24.
With `O=C(Cc1cccc(-n2ccnc2)c1)Nc1nnc(CCCCc2nnc(NC(=O)Cc3cccc(-n4ccnc4)c3)s2)s1` [Compound 363], under setting [2], the pIC50 is less than 4.70.
Same read-out and setting: the result for `COC(C(=O)Nc1nnc(CCCCc2nnc(NC(=O)C(OC)c3ccccc3)s2)s1)c1ccccc1` (centres unmarked) [Compound 65] reads 6.28.
With `O=C(Cc1ccc2ncccc2c1)Nc1nnc(CCSCCc2nnc(NC(=O)Cc3ccc4ncccc4c3)s2)s1` [Compound 268], under setting [2], the pIC50 is 5.27.
As for `O=C(CCN1CCOCC1)OC(C(=O)Nc1nnc(CCCCc2nnc(NC(=O)C(OC(=O)CCN3CCOCC3)c3cccc(Cl)c3)s2)s1)c1cccc(Cl)c1` (centres unmarked) [Compound 332], the pIC50 under setting [2] is 7.06.
As for `CC[C@](O)(C(=O)Nc1nnc(CCSCCc2nnc(NC(=O)[C@@](O)(CC)c3ccccc3)s2)s1)c1ccccc1` [Compound 141], the pIC50 under setting [2] was 5.37.
The same measure, in the same setting: with `COc1ccc(OC)c(CC(=O)Nc2nnc(CCCCc3nnc(NC(=O)Cc4ccccc4)s3)s2)c1` [Compound 271] the figure was 6.20.
Regarding `COC(C(=O)Nc1ccc(CCCCc2nnc(NC(=O)Cc3cccc(CNC(=O)OC(C)(C)C)c3)s2)nn1)c1ccccc1` (centres unmarked) [Compound 508], under setting [1], the pIC50 was 7.70.
On to `O=C(CN1C(=O)OC[C@H]1c1ccccc1)Nc1nnc(CCSCCc2nnc(NC(=O)CN3C(=O)OC[C@H]3c3ccccc3)s2)s1` [Compound 243], for which the pIC50 under setting [2] is 4.48.
Turning to `COCCOc1cccc(CC(=O)Nc2nnc(CCCCc3ccc(NC(=O)Cc4ccccc4)nn3)s2)c1` [Compound 428], the pIC50 under setting [1] was 7.72.
With `O=C(Cc1ccccc1)Nc1nnc(CCCCCc2nnc(NC(=O)Cc3ccccc3)s2)s1` [Compound 11], the pIC50 under setting [2] was 6.05.
As for `COc1cc(CC(=O)Nc2nnc(CCCCc3ccc(NC(=O)Cc4ccccc4)nn3)s2)ccc1O` [Compound 554], the pIC50 under setting [1] was 6.76.
With `O=C(Cc1ccccc1)Nc1ccc(CCCCc2ccc(NC(=O)Cc3ccccc3)nn2)nn1` [Compound 1038], the pIC50 under setting [2] is 5.82.
Turning to `Nc1ccc(CC(=O)Nc2nnc(CCSCCc3nnc(NC(=O)Cc4ccc(N)cc4)s3)s2)cc1` [Compound 195], the pIC50 under setting [2] is 5.89.
As to `CC(C)(C)OC(=O)NCc1ccccc1CC(=O)Nc1nnc(CCCCc2ccc(NC(=O)Cc3ccccc3)nn2)s1` [Compound 464], the pIC50 under setting [1] is 7.23.
On the same count and under the same terms, the result for `O=C(Cc1ccccc1F)Nc1ccc(CCCCc2nnc(NC(=O)Cc3ccccc3F)s2)nn1` [Compound 534] reads 7.36; that for `CC(O)c1cccc(CC(=O)Nc2ccc(CCCCc3nnc(NC(=O)Cc4ccccc4)s3)nn2)c1` (centres unmarked) [Compound 611], 7.40.
For the molecule `CC(CO)(CO)C(=O)Nc1nnc(CCCCc2nnc(NC(=O)Cc3cccc(F)c3)s2)s1` [Compound 152, N,N′-(5-(4-(5-(2-(3-fluorophenyl)acetamido)-1,3,4-thiadiazol-2-yl)butyl)-1,3,4-thiadiazol-2-yl)-3-hydroxy-2-(hydroxymethyl)-2-methylpropanamide], the pIC50 under setting [2] was 5.96.
Same read-out and setting: the result for `CC(C)(C)OC(=O)N1CCC(CC(=O)Nc2nnc(CCCCc3nnc(NC(=O)CC4CCN(C(=O)OC(C)(C)C)CC4)s3)s2)CC1` [Compound 114] reads 6.25.
On to `CC(C(=O)Nc1ccc(CCCCc2nnc(NC(=O)C(O)c3cccc(Cl)c3)s2)nn1)c1ccccc1` (centres unmarked) [Compound 468], for which the pIC50 under setting [1] was 6.57.
In the case of `O=CO[C@@H](C(=O)Nc1nnc(CCCCc2nnc(NC(=O)[C@H](OC=O)c3ccccc3)s2)s1)c1ccccc1` [Compound 68], the pIC50 under setting [2] is 6.47.
For `O=C(Cc1ccccc1)Nc1nnc(CCSCc2nnc(NC(=O)[C@@H](O)c3ccccc3)s2)s1` [Compound 377], the pIC50 under setting [2] is 7.00.
As to `CC(=O)OCC(=O)Nc1nnc(CCSCCc2nnc(NC(=O)COC(C)=O)s2)s1` [Compound 5], the pIC50 under setting [2] was less than 4.30.
As to `O=C(Cc1ccccc1)Nc1ccc(CCCCc2nnc(NC(=O)CC3=CN4CCCN=C4S3)s2)nn1` [Compound 511], the pIC50 under setting [1] is 5.96.
Regarding `O=C(Cc1ccccc1)Nc1ccc(CCCCc2nnc(NC(=O)C(OC(=O)CCN3CCOCC3)c3cccc(Cl)c3)s2)nn1` (centres unmarked) [Compound 389], the pIC50 under setting [2] is 7.49.
The same measure, in the same setting: with `O=C(N[C@@H](CO)C(=O)Nc1nnc(CCSCCc2nnc(NC(=O)[C@H](CO)NC(=O)OCc3ccccc3)s2)s1)OCc1ccccc1` [Compound 138] the figure was 5.57.
Take `O=C(Nc1nnc(CCSCCc2nnc(NC(=O)C3CCCO3)s2)s1)C1CCCO1` (centres unmarked) [Compound 39]: under setting [2], the pIC50 is 5.35.
As for `NS(=O)(=O)c1ccc(CC(=O)Nc2nnc(CCSCCc3nnc(NC(=O)Cc4ccc(S(N)(=O)=O)cc4)s3)s2)cc1` [Compound 217], the negative logarithm of the IC50 (pIC50) under setting [2] is less than 4.30.
Same read-out and setting: the result for `Nc1nnc(CCSCCc2nnc(NC(=O)[C@@H]3CCCN3C(=O)C(F)(F)F)s2)s1` [Compound 23] reads less than 4.30.
Still for that read-out and setting: the result for `O=C(Cc1ccccc1)Nc1nnc(CCCCc2nnc(NC(=O)Cc3ccccc3)o2)o1` [Compound 305] reads 3.99; that for `O=C(Nc1nnc(CCSCCc2nnc(NC(=O)C3Cc4cc(Br)ccc4O3)s2)s1)C1Cc2cc(Br)ccc2O1` (centres unmarked) [Compound 118], 4.44; that for `COc1ccccc1CC(=O)Nc1nnc(CCSCCc2nnc(NC(=O)Cc3ccccc3OC)s2)s1` [Compound 219], 6.24.
The same measure, in the same setting: the result for `NS(=O)(=O)c1ccc(CC(=O)Nc2nnc(CCCCc3nnc(NC(=O)Cc4ccc(S(N)(=O)=O)cc4)s3)s2)cc1` [Compound 198] reads less than 4.30.
For `O=C(C[C@@H](O)c1ccccc1)Nc1nnc(CCCCc2nnc(NC(=O)C[C@@H](O)c3ccccc3)s2)s1` [Compound 127], under setting [2], the pIC50 is 6.35.
Regarding `Nc1ccc(CCCCc2nnc(NC(=O)C(O)c3cccc(Cl)c3)s2)nn1` (centres unmarked) [Compound 411], the pIC50 under setting [1] was 6.13.
Regarding `Cc1cccc(CC(=O)Nc2nnc(CCSCCc3nnc(NC(=O)Cc4cccc(C)c4)s3)s2)c1` [Compound 247], under setting [2], the pIC50 was 6.08.
`CC(C(=O)Nc1nnc(CCCCc2ccc(NC(=O)Cc3cccc(CNC(=O)OC(C)(C)C)c3)nn2)s1)c1ccccc1` (centres unmarked) [Compound 489]: the negative logarithm of the IC50 (pIC50) under setting [1] is 7.64.
As to `O=C(Cc1ccccc1)NCc1cccc(CC(=O)Nc2nnc(CCCCc3ccc(NC(=O)Cc4ccccc4)nn3)s2)c1` [Compound 435], under setting [1], the pIC50 is 8.22.
Consider `O=C(CC1CCCCC1)Nc1nnc(CCSCCc2nnc(NC(=O)CC3CCCCC3)s2)s1` [Compound 48], for which, under setting [2], the pIC50 was 6.38.
Same read-out and setting: the result for `O=C(Cc1ccccc1)Nc1nnc(CCCCc2nnc(NC(=O)Cc3cccnc3)s2)s1` [Compound 309] reads 6.74.
Still for that read-out and setting: the result for `O=C(Cn1cccn1)Nc1nnc(CCCCc2nnc(NC(=O)Cn3cccn3)s2)s1` [Compound 60] reads 4.85.
For `O=C(Cc1ccccc1)Nc1nnc(CCCCc2ccc(NC(=O)NCc3ccccc3)nn2)s1` [Compound 405], the pIC50 under setting [1] is 6.17.
